# Experimental data: patent US20230147942A1, “PHARMACEUTICAL COMPOSITION COMPRISING NEW LACTOBACILLUS PLANTARUM KC3 STRAIN AND LEONURUS JAPONICUS EXTRACT AS ACTIVE INGREDIENTS FOR PREVENTING OR TREATING RESPIRATORY DISEASE AND USE THEREOF” (KT&G CORPORATION, priority 2020, published 2023)
# Tests used:
# [1] = test system: total number of cells in BAL fluid; assay: Total number of cells in BAL fluid, mouse model having respiratory damage caused by air pollutants; format: in vivo
# Procedure: (§1) BALB/c male mice (7-week-old, 20 g to 25 g, Orient Bio) were divided into groups of 6 mice, and as assigned to 6 mice in each group, and Alum was diluted in components of air pollutants, i.e., 10 mg/ml of coal combustible materials, 10 mg/ml of fly ash, and 5 mg/ml of diesel exhaust particle (DEP) to have a final concentration of 1% so that a final concentration of each component was 1.5 mg/ml for coal combustible material/fly ash and 5 mg/ml for DEP in a mixture. Then, to all groups except for a normal group, the mixture was directly injected into the airway and nose of the experimental animals by 50 pl each on the 4th, 7th and 10th says of the experiment.
# (§2) For a positive control group treated with dexamethasone (Sigma D2915), administed at 3 mg/kg BW of the mouse model, the Lactobacillus plantarum KC3 strain (KC3) was diluted at a concentration of 1×10^9CFU/cell (about 2 mg/kg BW), the Leonurus japonicus extract was diluted in distilled water at a dose of 100 mg/kg of BW, and then orally administered at a dose of 300 pl every day (for 11 days). […]
# [2] = test system: neutrophils; assay: Ratio of number of neutrophils to total number of cells in BAL fluid (Diff-Qick staining); format: in vivo, mouse
# Procedure: as §1, §2
# [3] = test system: CXCL-1; assay: Expression level of inflammation factor in BAL fluid (ELISA); format: in vivo, mouse
# Procedure: as §1
# (§3) For a positive control group treated with dexamethasone (Sigma D2915), administed at 3 mg/kg BW of the mouse model, the Lactobacillus plantarum KC3 strain (KC3) was diluted at a concentration of 1×10^9CFU/cell (about 2 mg/kg BW), the Leonurus japonicus extract was diluted in distilled water at a dose of 100 mg/kg of BW, and then orally administered at a dose of 300 pl every day (for 11 days). For a mixed group including the KC3 strain and the Leonurus japonicus extract, the solution was mixed and diluted at a ratio of 1:1 by the dry weight as in Examples above, and then orally administered at a dose of 300 pl every day (for 11 days) (the cell amount in the KC3 included in the mixture was 0.5×10^9 CFU/cell, and the dose of the Leonurus japonicus extract was set at 50 mg/kg BW). The oral administration was performed at a dose of 300 μl per mouse, and an autopsy was performed on the 12th day after the start of the experiment to recover the BAL solution.
# (§4) An experiment was carried out to confirm whether the expression level of inflammation factors in the BAL fluid can be lowered, when treated with the Lactobacillus plantarum KC3 strain, the Leonurus japonicus extract, or the mixture thereof.
# (§5) The experiment was carried out in the same manner as in Experimental Example 1-3, except that the number of cells in BAL fluid was measured. Instead of measuring the number of cells, ELISA was performed to measure the expression level of respiratory inflammation factors, such as IL-17A, TNF-α, and CXCL-1, expressed in BAL fluid. In detail, IL-17A antibodies (M1700, R&D Systems, Minneapolis, USA), TNF-α antibodies (MTA00B, R&D Systems, Minneapolis, USA), and CXCL-1 antibodies (MKCOOB, R&D Systems, Minneapolis, USA) were diluted with a buffer solution, coated microwells, and then cultured at 4° C. for 16 hours. Each well was washed with a buffer solution three times, and 10-fold diluted serum was dispensed at 100 μl per well. After being left at room temperature for 1 hour, the wells were washed twice. Then, 100 μl of Avidin-HRP-conjugated antibodies (DY007, R&D Systems, Minneapolis, USA) was treated thereon, and the wells were left again at room temperature for 1 hour, followed by washing again.
# (§6) Tetramethylbenzidine (TMB) base solution (DY007, R&D Systems, Minneapolis, USA) was dispensed at 100 μl per well, and the well plate was left in the dark for 30 minutes. After 50 μl of a stopping solution (DY007, R&D Systems, Minneapolis, USA) was treated thereon, absorbance of the cells was measured at 450 nm.
# [4] = test system: IL-17A; assay: as above; format: in vivo, mouse
# Procedure: as §1, §3, §4, §5, §6
# [5] = test system: TNF-α; assay: as above; format: in vivo, mouse
# Procedure: as §1, §3, §4, §5, §6
# [6] = test system: symmetric dimethylarginine (SDMA); assay: Measurement of SDMA as COPD biomarker in blood (ELISA); format: in vivo, mouse
# Procedure: as §1, §2
# After being left at room temperature for 1 hour, the wells were washed twice. […] After 50 μl of a stopping solution (DY007, R&D Systems, Minneapolis, USA) was treated thereon, absorbance of the cells was measured at 450 nm. […]
# [7] = BALB/c mice, air pollutant-induced, oral daily 11 days, BAL day 12, dexamethasone 3 mg/kg, KC3 1×10^9 CFU, Leo 100 mg/kg, mixture 0.5×10^9 CFU + 50 mg/kg
# [8] = BALB/c mice, air pollutant-induced, oral daily 11 days, dexamethasone 3 mg/kg, KC3 1×10^9 CFU, Leo 100 mg/kg, mixture 0.5×10^9 CFU + 50 mg/kg
smiles,measurement,setting,value
"C[C@@H]1C[C@H]2[C@@H]3CCC4=CC(=O)C=C[C@]4(C)[C@@]3(F)[C@@H](O)C[C@]2(C)[C@@]1(O)C(=O)CO [Positive control group, dexamethasone]",Total number of BAL cells (×10^4 cells/ml),[1]; [7],71.2 ± 8.3 ×10^4 cells/ml
same,"Inhibition rate (based on induced group), total BAL cells","[1]; same dosing as total BAL cells, based on induced group",54%
same,Ratio of number of neutrophils to total number of BAL cells (400X),[2]; [7],35.5 ± 6.1
same,"Inhibition rate (based on induced group), neutrophil ratio","[2]; same dosing, based on induced group",50%
same,CXCL-1 Concentration,[3]; [8],122 ± 12.4 pg/mL
same,CXCL-1 inhibition rate (%) based on induced group,[3]; same dosing,(39%)
same,IL-17A Concentration,[4]; [8],19.7 ± 6.3 pg/mL
same,IL-17A inhibition rate (%) based on induced group,[4]; same dosing,(41%)
same,TNF-α Concentration,[5]; [8],64.5 ± 7.7 pg/mL
same,TNF-α inhibition rate (%) based on induced group,[5]; same dosing,(46%)
same,SDMA level (μg/mL) in serum,[6]; [8],10.1 ± 1.9 µg/mL
same,"Inhibition rate (based on induced group), SDMA","[6]; serum, same dosing",41%
